Experiments:
MPV17^−/− mice = assay: qPCR measurements of mtDNA copy number in the liver of MPV17−/− mice; format: in vivo, mouse; details: treatment alone; summary statement
Description: • 2A. 2 litters from MPV17^−/− mouse (KO×KO) breeding pairs were used in the study. The experimental groups were set up as follows: • 1. - - - KO untreated (n=1) • 2. - - - KO treated with 109.35 mg/kg MT102C+104.2 mg/kg MT102G (n=3) • 3. - - - KO treated with 163.87 mg/kg MT103C+150.56 mg/kg MT103G (n=3) • 4. - - - KO treated with 75 mg/kg dC and 75 mg/kg dG (purchased from Sigma) (n=3) • 5. - - - KO treated with 144.9 mg/kg MT101G (n=2)
Treatment was started at day 7 and terminated at day 30. The treatment was performed by delivery into the oral cavity throughout the study. […] At day 30, animals were sacrificed and tissues collected. Liver, muscle, kidney, gut, heart and brain were flash frozen in liquid nitrogen. Blood was collected by heart puncture and plasma fractions stored at −80° C.
Results of qPCR measurements of mtDNA copy number in the liver tissue of treated and untreated mice are shown FIG. 7. • 2B. In order to compare results, WT (n=5), KO untreated (n=4) and KO treated with 20% MT101 (n=4) and 20% MT104 (n=4) from previous experiments were also included in the analysis. • 2C. Three other litters from KO x KO breeding pairs were used in a further study of nucleoside prodrug supplementation: • 1.—Litter 2 (L2): Born on Feb. 9, 2020 • 2.—Litter 3 (L3): Born on May 9, 2020 • 3.—Litter 4 (L4): Born on Aug. 9, 2020 […]
mtDNA copy number in liver was analyzed by RT-qPCR. […]

dGK mutant fish = details: nucleoside supplementation (Munro, et al. 2019); cited from earlier work
[1] = system: fibroblasts from patients with DGUOK mutations; details: cited from earlier work

SMILES: Nc1nc2c(ncn2[C@H]2C[C@H](O)[C@@H](CO)O2)c(=O)[nH]1 [dG, 2′-deoxyguanosine]
- mtDNA copy numbers in dGK or MPV17 deficiency disorders (MPV17^−/− mice): sufficient to increase mtDNA copy numbers
- mtDNA levels in dGK mutant fish (dGK mutant fish): decreased mtDNA levels
- mtDNA depletion after quiescence, previously demonstrated ([1]; 50 μM in cell culture medium): sufficient to prevent this depletion
- mtDNA copy number ([1]; 50 μm added into culture broth (Camara, et al. 2014)): sufficient to increase the mtDNA copy number

From patent US20250049836A1, “PRODRUGS OF DEOXYNUCLEOSIDES FOR TREATMENT OF MITOCHONDRIAL DISEASES CAUSED BY UNBALANCED NUCLEOTIDE POOLS” (UCB Biosciences, Inc., priority 2021, published 2025)
